The values below come from US7482379B2, “Propenoyl hydrazides” (priority 2004, dated 2009).

One experiment deals with T1, Caspase-2 (Homo sapiens, UniProt P42575).
T1 sequence (P42575 170-333 limits assumed): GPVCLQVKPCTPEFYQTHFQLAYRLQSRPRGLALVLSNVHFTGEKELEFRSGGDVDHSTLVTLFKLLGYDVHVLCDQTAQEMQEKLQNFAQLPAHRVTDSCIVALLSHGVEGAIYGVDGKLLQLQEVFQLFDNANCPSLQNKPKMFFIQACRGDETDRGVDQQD
T1 sequence (P42575 348-452 limits assumed): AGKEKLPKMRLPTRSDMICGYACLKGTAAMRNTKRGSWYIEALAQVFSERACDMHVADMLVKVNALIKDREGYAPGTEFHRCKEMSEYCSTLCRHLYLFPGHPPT
The experiment can be described thus: Caspase-2 progress curve inhibition assay. The following applies: second-order rate constant; Cbz-VDVAD-AFC substrate; Pipes buffer pH 7.2.

A further experiment deals with T2, Caspase-3 (Homo sapiens, UniProt P42574).
T2 sequence (P42574 29-175 limits assumed): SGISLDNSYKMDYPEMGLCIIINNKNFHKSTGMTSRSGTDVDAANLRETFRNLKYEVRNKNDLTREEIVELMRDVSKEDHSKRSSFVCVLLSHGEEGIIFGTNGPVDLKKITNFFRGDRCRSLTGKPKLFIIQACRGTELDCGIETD
T2 sequence (P42574 176-277 limits assumed): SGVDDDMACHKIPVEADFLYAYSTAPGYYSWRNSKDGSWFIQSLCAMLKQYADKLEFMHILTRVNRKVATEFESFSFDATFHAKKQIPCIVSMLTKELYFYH
The experiment can be described thus: Caspase-3 progress curve inhibition assay. The following applies: second-order rate constant; Ac-DEVD-AMC substrate; Pipes buffer pH 7.2.

Another experiment addresses T3, Caspase-6 (Homo sapiens, UniProt P55212).
T3 sequence (P55212 24-179 limits assumed): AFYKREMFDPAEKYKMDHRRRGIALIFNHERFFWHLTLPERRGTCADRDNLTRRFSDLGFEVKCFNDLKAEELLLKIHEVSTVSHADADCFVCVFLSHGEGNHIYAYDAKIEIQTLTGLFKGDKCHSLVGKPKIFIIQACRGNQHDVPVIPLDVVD
T3 sequence (P55212 194-293 limits assumed): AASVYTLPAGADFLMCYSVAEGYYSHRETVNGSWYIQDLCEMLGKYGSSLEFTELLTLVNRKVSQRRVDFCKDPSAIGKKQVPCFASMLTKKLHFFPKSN
The experiment can be described thus: Caspase-6 progress curve inhibition assay. The following applies: second-order rate constant; Ac-DEVD-AMC substrate; Pipes buffer pH 7.2.

A further experiment deals with T4, Caspase-7 (Homo sapiens, UniProt P55210).
T4 sequence (P55210 24-198 limits assumed): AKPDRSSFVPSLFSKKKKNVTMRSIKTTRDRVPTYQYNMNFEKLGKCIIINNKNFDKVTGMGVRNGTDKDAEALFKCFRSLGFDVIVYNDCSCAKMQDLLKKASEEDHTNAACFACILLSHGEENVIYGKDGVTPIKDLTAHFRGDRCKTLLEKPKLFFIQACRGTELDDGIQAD
T4 sequence (P55210 207-303 limits assumed): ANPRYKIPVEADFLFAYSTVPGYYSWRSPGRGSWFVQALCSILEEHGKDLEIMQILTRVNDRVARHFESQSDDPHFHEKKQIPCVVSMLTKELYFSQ
The experiment can be described thus: Caspase-7 progress curve inhibition assay. The following applies: second-order rate constant; Ac-DEVD-AMC substrate; Pipes buffer pH 7.2.

In another experiment the target is Caspase-8 (Homo sapiens, UniProt Q14790). The experiment can be described thus: Caspase-8 progress curve inhibition assay. The following applies: second-order rate constant; Ac-DEVD-AMC substrate; Pipes buffer pH 7.2.
Another experiment concerns the target T5, Caspase-9 (Homo sapiens, UniProt P55211).
T5 sequence (P55211 1-315 limits assumed): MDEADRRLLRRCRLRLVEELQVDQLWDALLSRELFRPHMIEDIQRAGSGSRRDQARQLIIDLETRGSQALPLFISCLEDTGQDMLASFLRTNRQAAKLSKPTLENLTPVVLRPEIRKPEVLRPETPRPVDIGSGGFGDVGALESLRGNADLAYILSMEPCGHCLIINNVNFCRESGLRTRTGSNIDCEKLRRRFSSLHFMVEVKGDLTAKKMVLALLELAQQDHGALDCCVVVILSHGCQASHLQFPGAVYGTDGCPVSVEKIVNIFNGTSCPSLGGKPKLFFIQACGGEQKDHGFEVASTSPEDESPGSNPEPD
T5 sequence (P55211 331-416 limits assumed): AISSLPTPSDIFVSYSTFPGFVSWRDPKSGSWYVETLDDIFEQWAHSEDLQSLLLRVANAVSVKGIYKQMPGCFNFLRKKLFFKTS
The experiment can be described thus: Caspase-9 progress curve inhibition assay. The following applies: second-order rate constant; Ac-LEHD-AFC substrate; Hepes buffer pH 7.0 with 0.7 M sodium citrate.

A further experiment deals with T6, Caspase-10 (Homo sapiens, UniProt Q92851).
T6 sequence (Q92851 220-415 limits assumed): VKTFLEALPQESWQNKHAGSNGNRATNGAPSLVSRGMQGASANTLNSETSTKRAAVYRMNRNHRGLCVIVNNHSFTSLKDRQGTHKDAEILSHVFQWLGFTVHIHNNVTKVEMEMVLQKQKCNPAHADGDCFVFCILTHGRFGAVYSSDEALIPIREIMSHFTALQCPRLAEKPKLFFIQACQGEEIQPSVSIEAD
T6 sequence (Q92851 416-521 limits assumed): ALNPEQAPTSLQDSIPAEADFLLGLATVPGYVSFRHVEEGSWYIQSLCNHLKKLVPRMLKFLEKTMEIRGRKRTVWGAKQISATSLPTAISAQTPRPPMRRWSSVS
The experiment can be described thus: Caspase-10 progress curve inhibition assay. The following applies: second-order rate constant; Ac-DEVD-AMC substrate; Hepes/PEG buffer pH 7.0.

Caspase-8, sequence (Q14790 217-374 limits assumed): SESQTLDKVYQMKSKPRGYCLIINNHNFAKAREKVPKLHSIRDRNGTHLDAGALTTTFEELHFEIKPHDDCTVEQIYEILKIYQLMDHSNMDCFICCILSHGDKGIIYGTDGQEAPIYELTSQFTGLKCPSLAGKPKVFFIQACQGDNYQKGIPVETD
Caspase-8, sequence (Q14790 385-479 limits assumed): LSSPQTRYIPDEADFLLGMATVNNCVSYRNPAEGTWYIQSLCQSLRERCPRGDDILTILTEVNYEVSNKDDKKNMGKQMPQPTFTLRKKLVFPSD
Protocol for Caspase-10: Caspase-2, -3, -6, -7, -8, -9 and -10. Caspases-2, -3, -6, -7, -8, -9 and -10 were expressed in E. coli and purified in Guy Salvesen's laboratory at the Burnham Institute, La Jolla, Calif., according to the methods known in the art. Inhibition rates were determined by the progress curve method known in the art. This method is suitable for measuring irreversible inhibition rates with fast inhibitors, where the inhibitor, the substrate and the enzyme are incubated together and the rate of substrate hydrolysis is measured continuously. The rate of substrate hydrolysis in the presence of the inhibitor was monitored for 20 minutes. The progress curve of inhibition, where the product formation approaches an asymptote is described in the equation ln([P∞]−[P])=ln[P∞]−A[I]t where [P] and [P∞] are the product concentrations at t and t=∞ respectively, A is the apparent rate constant in the presence of the substrate. The apparent rate constants were determined from the slopes of plots of ln ([P∞]−[P]) versus time (t) in seconds as previously described, where A=slope/[I].
(§1) For competitive and irreversible inhibition, the apparent rate constant is converted to the second order rate constant k2 by taking into consideration the effect of the substrate concentration on the apparent rate constant. The second order rate constant is described as in the equation: k2=A*(1+[S]/KM)
Assay buffer is a 1:1 mixture of buffer (200 mM Hepes, 0.2% (w/v) CHAPS, PEG 20% (w/v)) and 20 mM DTT solution in H2O at pH 7.0). The enzyme was pre-activated for 10 min at 25° C. in the assay buffer.
Protocol for Caspase-9: Caspases-2, -3, -6, -7, -8, -9 and -10 were expressed in E. coli and purified in Guy Salvesen's laboratory at the Burnham Institute, La Jolla, Calif., according to the methods known in the art. Inhibition rates were determined by the progress curve method known in the art. This method is suitable for measuring irreversible inhibition rates with fast inhibitors, where the inhibitor, the substrate and the enzyme are incubated together and the rate of substrate hydrolysis is measured continuously. The rate of substrate hydrolysis in the presence of the inhibitor was monitored for 20 minutes. The progress curve of inhibition, where the product formation approaches an asymptote is described in the equation ln([P∞]−[P])=ln[P∞]−A[I]t where [P] and [P∞] are the product concentrations at t and t=∞ respectively, A is the apparent rate constant in the presence of the substrate. The apparent rate constants were determined from the slopes of plots of ln ([P∞]−[P]) versus time (t) in seconds as previously described, where A=slope/[I].
as §1
Assay buffer is a 1:1 mixture of buffer (200 mM Hepes, 100 mM NaCl, 0.02% (w/v) CHAPS, sucrose 20% (w/v)) and 20 mM DTT solution in H2O at pH 7.0). The assay buffer was supplemented with 0.7 M sodium citrate. The enzyme was pre-activated for 10 min at 37° C. in the assay buffer.

In the case of `CC(C)[C@H](NC(=O)[C@H](CCC(=O)O)NC(=O)[C@H](CC(=O)O)NC(=O)OCc1ccccc1)C(=O)NN(CC(=O)O)C(=O)/C=C/C(=O)NCc1ccc(F)cc1` (relative stereo) [N^2—(N-Benzyloxycarbonylaspartylglutamylvalyl)-N^1-carboxymethyl-N^1-trans-(3-(4-fluorobenzyl)carbamoylpropenoyl)hydrazine], the “k2 Caspase-2” value at Caspase-2 was determined as 130 M⁻¹ s⁻¹. Also, the “k2 Caspase-3” value at Caspase-3 was 2,100,000 M^−1s^−1. Besides, the “k2 Caspase-6” value at Caspase-6 is on record as 4,400 M^−1s^−1. For the same compound, the “k2 Caspase-7” value on Caspase-7 is 329,000 M^−1s^−1. The “k2 Caspase-8” value on Caspase-8 is 85,100 M^−1s^−1. In addition, the “k2 Caspase-9” value on Caspase-9 is 900 M⁻¹ s⁻¹. At Caspase-10, the “k2 Caspase-10” value is recorded as 37,700 M^−1s^−1.

`CC(C)C[C@H](NC(=O)OCc1ccccc1)C(=O)N[C@@H](CCC(=O)O)C(=O)N[C@H](C(=O)NN(CC(=O)O)C(=O)/C=C/C(=O)NCc1ccccc1)[C@@H](C)O` (relative stereo) [Cbz-Leu-Glu-Thr-AAsp-CH═CH—CONHCH2Ph, N^1-trans-(3-Benzylcarbamoylpropenoyl)-N^2—(N-benzyloxycarbonylleucylglutamylthreonyl)-N^1-carboxylmethylhydrazine]: the “k2 Caspase-2” value at Caspase-2 is 66 M⁻¹ s⁻¹. The “k2 Caspase-3” value at Caspase-3 was 1,120 M^−1s^−1. Moreover, on Caspase-6, the “k2 Caspase-6” value is 1,550 M^−1s^−1. In addition, the “k2 Caspase-7” value at Caspase-7 was 340 M⁻¹ s⁻¹. The “k2 Caspase-8” value at Caspase-8 is 70,170 M^−1s^−1. In addition, the “k2 Caspase-9” value on Caspase-9 is 1,400 M^−1s^−1. Further, the “k2 Caspase-10” value at Caspase-10 is on record as 14,400 M^−1s^−1.

Consider `CC(C)C[C@H](NC(=O)OCc1ccccc1)C(=O)N[C@@H](CCC(=O)O)C(=O)N[C@H](C(=O)NN(CC(=O)O)C(=O)/C=C/C(=O)N(C)Cc1ccccc1)[C@@H](C)O` (relative stereo) [Cbz-Leu-Glu-Thr-AAsp-CH═CH—CON(CH3)CH2Ph, N^1-trans-(3-Benzylmethylcarbamoylpropenoyl)-N^2—(N-benzyloxycarbonylleucylglutamylthreonyl)-N^1-carboxylmethylhydrazine], for which, at Caspase-2, the “k2 Caspase-2” value stood at 140 M⁻¹ s⁻¹. In addition, the “k2 Caspase-3” value at Caspase-3 was 6,000 M^−1s^−1. Besides, the “k2 Caspase-6” value on Caspase-6 is 10,800 M^−1s^−1. Besides, the “k2 Caspase-7” value at Caspase-7 came out at 520 M⁻¹ s⁻¹. Moreover, the “k2 Caspase-8” value at Caspase-8 is recorded as 169,000 M^−1s^−1. The “k2 Caspase-9” value on Caspase-9 was 4,320 M^−1s^−1. Further, the “k2 Caspase-10” value at Caspase-10 is reported as 8,430 M^−1s^−1.

Consider `CC(C)C[C@H](NC(=O)OCc1ccccc1)C(=O)N[C@@H](CCC(=O)O)C(=O)N[C@H](C(=O)NN(CC(=O)O)C(=O)/C=C/C(=O)NCCc1ccccc1)[C@@H](C)O` (relative stereo) [Cbz-Leu-Glu-Thr-AAsp-CH═CH—CONHCH2CH2Ph, N^2—(N-Benzyloxycarbonylleucylglutamylthreonyl)-N^1-carboxylmethyl-N^1-trans-(3-phenylethylcarbamoylpropenoyl)hydrazine], for which, at Caspase-2, the “k2 Caspase-2” value amounted to 110 M⁻¹ s⁻¹. In addition, the “k2 Caspase-3” value at Caspase-3 was 5,400 M^−1s^−1. For the same compound, at Caspase-6, the “k2 Caspase-6” value is 2,150 M^−1s^−1. The “k2 Caspase-7” value at Caspase-7 turned out to be 440 M⁻¹ s⁻¹. Besides, the “k2 Caspase-8” value on Caspase-8 is on record as 121,000 M^−1s^−1. In addition, the “k2 Caspase-9” value at Caspase-9 was 1,760 M^−1s^−1. On Caspase-10, the “k2 Caspase-10” value was 17,900 M^−1s^−1.

Take `CC(C)[C@H](NC(=O)[C@H](CCC(=O)O)NC(=O)[C@H](CC(=O)O)NC(=O)OCc1ccccc1)C(=O)NN(CC(=O)O)C(=O)/C=C/C(=O)N(C)CCc1ccccc1` (relative stereo) [N^2—(N-Benzyloxycarbonylaspartylglutamylvalyl)-N^1-carboxymethyl-N^1-trans-(3-phenethylmethylcarbamoylpropenoyl)hydrazine]: the “k2 Caspase-2” value at Caspase-2 stood at 320 M⁻¹ s⁻¹. The “k2 Caspase-3” value on Caspase-3 is on record as 1,180,000 M^−1s^−1. Moreover, the “k2 Caspase-6” value on Caspase-6 is 4,000 M^−1s^−1. Moreover, the “k2 Caspase-7” value at Caspase-7 is recorded as 172,000 M^−1s^−1. At Caspase-8, the “k2 Caspase-8” value is reported as 31,900 M^−1s^−1. Further, the “k2 Caspase-9” value at Caspase-9 was 425 M⁻¹ s⁻¹. Besides, the “k2 Caspase-10” value at Caspase-10 is recorded as 9,570 M^−1s^−1.

`CC(C)[C@H](NC(=O)[C@H](CCC(=O)O)NC(=O)[C@H](CC(=O)O)NC(=O)OCc1ccccc1)C(=O)NN(CC(=O)O)C(=O)/C=C/C(=O)N(C)Cc1ccccc1` (relative stereo) [Cbz-Asp-Glu-Val-AAsp-CH═CH—CON(CH3)CH2Ph, N^1-trans-(3-Benzylmethylcarbamoylpropenoyl)-N^2—(N-benzyloxycarbonylaspartylglutamylvalyl)-N^1-carboxymethylhydrazine]: at Caspase-2, the “k2 Caspase-2” value was 660 M⁻¹ s⁻¹. The “k2 Caspase-3” value on Caspase-3 is listed as 2,640,000 M^−1s^−1. Also, on Caspase-6, the “k2 Caspase-6” value is 9,500 M^−1s^−1. The “k2 Caspase-7” value at Caspase-7 is on record as 275,000 M^−1s^−1. Besides, the “k2 Caspase-8” value on Caspase-8 is reported as 90,300 M^−1s^−1. On Caspase-9, the “k2 Caspase-9” value was 820 M⁻¹ s⁻¹. Moreover, the “k2 Caspase-10” value at Caspase-10 was 29,400 M^−1s^−1.

For `CC[C@H](C)[C@H](NC(=O)OCc1ccccc1)C(=O)N[C@@H](CCC(=O)O)C(=O)N[C@H](C(=O)NN(CC(=O)O)C(=O)/C=C/C(=O)NCc1ccccc1)[C@@H](C)O` (relative stereo) [Cbz-Ile-Glu-Thr-AAsp-CH═CH—CONHCH2Ph, N^1-trans-(3-Benzylcarbamoylpropenoyl)-N^2—(N-benzyloxycarbonylisoleucylglutamylthreonyl)-N^1-carboxylmethylhydrazine], on Caspase-2, the “k2 Caspase-2” value is 15 M⁻¹ s⁻¹. Further, the “k2 Caspase-3” value at Caspase-3 was 2,250 M^−1s^−1. Also, the “k2 Caspase-6” value on Caspase-6 is reported as 16,800 M^−1s^−1. Besides, the “k2 Caspase-7” value at Caspase-7 turned out to be 100 M⁻¹ s⁻¹. In addition, the “k2 Caspase-8” value at Caspase-8 is given as 61,300 M^−1s^−1. Moreover, the “k2 Caspase-9” value on Caspase-9 was 440 M⁻¹ s⁻¹. Moreover, the “k2 Caspase-10” value at Caspase-10 came to 503 M⁻¹ s⁻¹.

As for `CC[C@H](C)[C@H](NC(=O)OCc1ccccc1)C(=O)N[C@@H](CCC(=O)O)C(=O)N[C@H](C(=O)NN(CC(=O)O)C(=O)/C=C/C(=O)NCCc1ccccc1)[C@@H](C)O` (relative stereo) [Cbz-Ile-Glu-Thr-AAsp-CH═CH—CONHCH2CH2Ph, N^2—(N-BenzyloxycarbonylisoleucylglutamyIthreonyl)-N^1-carboxylmethyl-N^1-trans-(3-phenyethylcarbamoylpropenoyl)hydrazine], the “k2 Caspase-2” value at Caspase-2 was determined as 30 M⁻¹ s⁻¹. On Caspase-3, the “k2 Caspase-3” value was 4,750 M^−1s^−1. For the same compound, the “k2 Caspase-6” value at Caspase-6 was 18,700 M^−1s^−1. On Caspase-7, the “k2 Caspase-7” value was found to be 440 M⁻¹ s⁻¹. Moreover, the “k2 Caspase-8” value on Caspase-8 is given as 71,000 M^−1s^−1. Further, the “k2 Caspase-9” value on Caspase-9 is 615 M⁻¹ s⁻¹. For the same compound, the “k2 Caspase-10” value at Caspase-10 is reported as 8,290 M^−1s^−1.
